Measurements taken from US9556460B2, “Method for the production of 3-hydroxy-3-methylbutyric acid from acetone and an activated acetyl compound” (Scientist of Fortune, S.A., priority 2009, dated 2017).

Tests used:
Type in all cases: biochemical
Settings in all cases: acetyl-CoA constant 10 mM, 40 mM Tris-HCl pH 8, 2 mM MgCl2, 37° C., 40 h
[1] = biological target: T1, Gallus gallus (Chicken) HMG-CoA synthase, cytoplasmic, P23228, SEQ ID NO: 7 (Gallus gallus, UniProt P23228); assay: Kinetic parameters for the enzymatic reaction between acetyl-CoA and acetone, HMG-CoA synthase of Gallus gallus
T1 construct: made in house; host or cells: E. coli BL21
T1 sequence (P23228 1-522): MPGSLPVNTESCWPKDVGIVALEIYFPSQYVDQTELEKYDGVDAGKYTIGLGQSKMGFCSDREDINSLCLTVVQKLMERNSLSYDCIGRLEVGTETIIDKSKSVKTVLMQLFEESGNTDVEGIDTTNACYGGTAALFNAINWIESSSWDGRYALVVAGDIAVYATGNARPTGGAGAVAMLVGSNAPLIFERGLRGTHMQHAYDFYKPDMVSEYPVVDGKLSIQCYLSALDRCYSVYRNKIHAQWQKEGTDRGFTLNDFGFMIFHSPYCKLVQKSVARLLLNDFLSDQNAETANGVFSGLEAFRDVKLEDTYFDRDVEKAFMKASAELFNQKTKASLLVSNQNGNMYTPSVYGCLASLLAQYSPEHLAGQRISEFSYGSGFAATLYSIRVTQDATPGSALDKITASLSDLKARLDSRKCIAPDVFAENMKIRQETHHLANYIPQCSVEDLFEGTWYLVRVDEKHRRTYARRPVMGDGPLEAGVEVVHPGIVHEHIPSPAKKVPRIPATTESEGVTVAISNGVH
Procedure: (§1) Kinetic Parameters for the Enzymatic Reaction Between Acetyl-CoA and Acetone in the Case of HMG Synthases
(§2) The kinetic parameters were measured using a variable concentration of acetone and a constant concentration of acetyl-CoA (10 mM) in following conditions:
(§3) The final pH was adjusted to 8.
(§4) The reaction was initiated by the addition of 3 mg of purified enzyme to the 1 ml reaction mixture. The mixture was then incubated without shaking at 37° C. for 40 h.
(§5) Analysis of 3-hydroxy-3-methylbutyrate Production
(§6) Thermochemical conditions leading to the decomposition of 3-hydroxy-3-methylbutyrate into isobutene were applied (Pressman et al., JACS, 1940, 2069-2080): the pH of the reaction mixtures was first adjusted to pH 4 using 6N HCl and the samples were then transferred into gas chromatography vials (Interchim). The vials were sealed and incubated at 110° C. for 4 hours, thus leading to the decomposition of 3-hydroxy-3-methylbutyrate into isobutene.
(§7) The calibration curve was prepared in the same conditions using commercial 3-hydroxy-3-methylbutyrate.
(§8) One milliliter of headspace gas was collected and injected into a HP5890 gas chromatograph (HP) equipped with a FID detector and a CP SilicaPlot® column (chromatography column; Varian). Commercial isobutene was used as reference. From the isobutene signal the amount of 3-hydroxy-3-methylbutyrate initially present in the sample was calculated.

[2] = biological target: Staphylococcus epidermidis HMG-CoA synthase, Q8CN06, SEQ ID NO: 11 (Staphylococcus epidermidis, UniProt Q9FD76); assay: Kinetic parameters for the enzymatic reaction between acetyl-CoA and acetone, HMG-CoA synthase of Staphylococcus epidermidis
Procedure: as §1, §2, §3, §4, §5, §6, §7, §8

[3] = biological target: T2, Schizosaccharomyces pombe (Fission yeast) HMG-CoA synthase, cytoplasmic, P54874, SEQ ID NO: 2 (Schizosaccharomyces pombe, UniProt P54874); assay: Kinetic parameters for the enzymatic reaction between acetyl-CoA and acetone, HMG-CoA synthase of Schizosaccharomyces pombe
T2 construct: made in house; host or cells: E. coli BL21
T2 sequence (P54874 1-447): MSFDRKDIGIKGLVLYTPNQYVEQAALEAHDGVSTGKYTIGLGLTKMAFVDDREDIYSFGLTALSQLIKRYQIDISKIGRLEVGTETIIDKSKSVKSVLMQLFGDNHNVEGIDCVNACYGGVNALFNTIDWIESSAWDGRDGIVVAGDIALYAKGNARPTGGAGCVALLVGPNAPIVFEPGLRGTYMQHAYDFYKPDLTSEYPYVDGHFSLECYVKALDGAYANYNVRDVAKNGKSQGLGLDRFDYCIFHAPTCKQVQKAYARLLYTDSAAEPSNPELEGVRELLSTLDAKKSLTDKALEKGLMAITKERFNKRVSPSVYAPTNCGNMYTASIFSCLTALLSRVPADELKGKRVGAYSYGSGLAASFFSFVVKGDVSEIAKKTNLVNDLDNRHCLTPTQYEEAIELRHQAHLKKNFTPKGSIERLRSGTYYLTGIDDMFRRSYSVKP
Procedure: as §1, §2, §3, §4, §5, §6, §7, §8

Sequence of Staphylococcus epidermidis HMG-CoA synthase, Q8CN06, SEQ ID NO: 11 (Q9FD76 entry or part of it, one chain of several): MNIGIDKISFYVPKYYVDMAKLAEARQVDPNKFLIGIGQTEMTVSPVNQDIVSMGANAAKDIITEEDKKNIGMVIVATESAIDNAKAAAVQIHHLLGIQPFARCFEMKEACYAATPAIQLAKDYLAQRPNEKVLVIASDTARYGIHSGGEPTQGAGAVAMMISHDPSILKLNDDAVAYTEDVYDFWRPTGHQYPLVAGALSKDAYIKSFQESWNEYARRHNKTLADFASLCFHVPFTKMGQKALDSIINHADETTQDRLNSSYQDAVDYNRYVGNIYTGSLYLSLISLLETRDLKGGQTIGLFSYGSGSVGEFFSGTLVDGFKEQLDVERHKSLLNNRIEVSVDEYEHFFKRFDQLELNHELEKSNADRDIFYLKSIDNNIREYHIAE

CC(C)=O [acetone]
kcat ([1]; 0-1 M acetone): 5 × 10^−4, sec^−1 | kcat/KM ([1]; acetone): 2 × 10^−6, mM^−1 × sec−^1 | kcat ([2]; 0-1 M acetone): 0.6 × 10^−4, sec^−1 | kcat/KM ([2]; acetone): 0.3 × 10^−6, mM^−1 × sec−^1 | kcat ([3]; 0-1 M acetone): 0.2 × 10^−4, sec^−1 | kcat/KM ([3]; acetone): 0.1 × 10^−6, mM^−1 × sec−^1
